Assay results: US20120258944A1, “ANTIOXIDANTS FOR USE IN THERAPY” (priority 2009, published 2012)

How the values were obtained:
kidney slice = experiment: Organ model TBARS experiment (TBA-MDA assay) in kidney slices
[1] = two-phase model, N-acetylcysteine in the aqueous phase; cited from earlier work
PLB985 cells = experiment: Resazurin based in vitro toxicology assay (TOX8); type: cell-based, human; details: PLB985, 3 hours, up to 120 μM
Experimental: The viability of cells treated with the compounds was also analyzed using a Resazurin based in vitro Toxicology Assay Kit (SigmaAldrich TOX8). Resazurin systems measure the metabolic activity of living cell. Resazurin in its oxidized form (blue) is reduced (red) by living cells and the amount of dye conversion is measured fluorometrically or spectrophotometrically indicating the degree of cytotoxicity.
1) 75 micro-l of PLB985 cells (1 million cells/ml) is mixed with 25 micro-l of Compounds 1, 2, 3 and D (480, 120, 15 and 0.48 micro-M) in a 96 well plate in duplicates. 2) 10 micro-L of Resazurin solution is added to each well and the plate is incubated at 37° C. for 3 hours. 3) Spectrophotometrical analysis is performed in plate reader at 600 and 690 nm.
FIG. 18: Cell viability of compounds in human PLB-985 cell line. Concentrations of compounds 120; 60; 30; 3.75; 0.12 and […] final concentrations. Measurement that indicates cell cytotoxicity (In vitro toxicology assay, TOX-8). The bars show increased level of cytotoxicity (analysis of absorbance of 600 nm substracted with absorbance 690 nm).

human neutrophils = experiment: Luminol enhanced chemiluminescence, total ROS production in neutrophils; type: cell-based
Source text: We investigated the capacity of the material to quench ROS produced by freshly isolated human neutrophils or THP-1 cells (human acute monocytic leukemia cell line) stimulated with PMA (Phorbol Myristate Acetate). The antioxidant capacity of selenide 1 was again compared to those of Trolox, a water soluble derivative of vitamin E, which is commonly used in biological and biochemical applications to reduce oxidative stress or damage.
Neutrophils were isolated from heparinized blood of apparently healthy blood donors (Academic Hospital, Uppsala, Sweden) following a routine dextran sedimentation method essentially as described by Halansson and Venge (Scandinavian Journal of Immunology 1980, 11, 271-282). To each of three test tubes containing 5 ml heparinized blood, dextran (T500, Pharmacia, Uppsala, Sweden) was added (final concentration 1%) and the sedimentation was allowed to proceed for 30 min at room temperature. […] Finally, the pellet was resuspended in Gey's buffer and the average content of neutrophils (approximately 90%) was calculated using Türks staining and hemocytometer method. […]
The generation of oxygen free radicals over time from neutrophils was monitored for 40 minutes in 24 well white optiplates (Greiner) using a Wallac Victor […] in the luminescence mode. […]

[2] = test system: human umbilical vein endothelial cells (HUVEC); experiment: XTT in vitro toxicology test in human umbilical vein endothelial cells; type: cell-based; details: human
Experimental: As a negative control, cells incubated with medium containing 0.5% DMSO (corresponding to the highest DMSO concentration above) was used. As a positive control, cells were incubated in the presence of 20% EtOH.
After the incubation with the compounds, the wells were washed with PBS to remove substances which could interfere with the assay. 40 μl of fresh medium 200 without phenol red was added together with 10 μl XTT substance (according to the manufacturer's instructions). The plates were incubated for 8 hrs and the colour development was monitored by measuring the absorbance at 450 nm.
After incubation, the number of viable cells was assessed by observing the amount of metabolized XTT (2,3-bis[2-methoxy-4-nitro-5-sulphophenyl]-2H-tetrazolium-5-carboxyanilide inner salt).

[3] = test system: human neutrophils and PBMCs, rat neutrophils and PBMCs, human PLB-985 cell line; experiment: Extracellular ROS, isoluminol luminescence, PMA or fMLF stimulated cells; type: cell-based; details: PMA or fMLF 30 ng/ml; compounds 120 to 0 microM; FIG. 1-4, 9-12, 14-17
Experimental: Validation was performed by stimulating cells with PMA and fMLF. When treated with the antioxidants, altered level of ROS production from the cells was measured using luminometry. Both intracellular and extracellular effect on ROS on the cells was analyzed using isoluminol (extracellular) and luminol (intracellular when co-administered with SOD and catalase) (Dahlgren et al. “Respiratory burst in human neutrophils”, Journal of Immunological Methods 232 1999; 3-14).
The isoluminol reagent buffer was made of HBSS buffer (with Ca^2+), Isoluminol and HRP.
1) Add 25 microL of antioxidants to assay plate to get proper concentrations in a total reaction volume of 100 micro-L. 2) Add 25 microL of PMA (120 ng/ml) and fMLF (120 ng/ml) to assay plate to get concentration of 30 ng/ml in a total reaction volume of 100 microL. 3) Add 50 microL of cell suspension (2 million cells/ml) to each well. Immediately after addition of cell suspension initiate luminescence measurement; the reaction starts at once when the cells are added to the assay plate. Measurement points are taken at 1-minute intervals for 25 minutes. Data is presented as AUC (Area Under Curve) by a summary of all collected measurements for each well.
FIG. 1: Extracellular ROS analyzed by Isoluminol induced luminescence in human Neutrophils. ROS induced with PMA (30 ng/ml) with 200, 100 or 0 microM NAC. Concentrations of compounds 120, 60, 30 and 0 microM final concentrations.
FIG. 9: Extracellular ROS analyzed by Isoluminol induced luminescence in rat Neutrophils. ROS induced with PMA (30 ng/ml) with 200, 100 or 0 microM NAC. Concentrations of compounds 120, 60, 30 and 0 microM final concentrations.
FIG. 11: Extracellular ROS analyzed by Isoluminol induced luminescence in human PLB-985 cell line. ROS induced with PMA (30 ng/ml) with 200, 100 or 0 microM NAC. Concentrations of compounds 120, 60, 30 and 0 microM final concentrations.

CC1Cc2cc(O)ccc2[Se]1 (centres unmarked) [Compound 1]
potency as inhibitor of TBARS production compared with references (kidney slice): more potent inhibitors of TBARS production than Trolox and N-acetylcysteine
concentration able to inhibit 50% of the TBARS formation in the control incubation (kidney slice; re-oxygenation after Argon): sub-micromolar
Inhibited Rate of Linoleic Acid Peroxidation (Rinh) [1]: 69 µM/h
cytotoxicity (PLB985 cells): no signs of cytotoxicity
effect on ROS production in neutrophils (human neutrophils; 20, 40, 60 micro-M, FIG. 22): clear, dose dependent, quenching/inhibiting effect
quenching of ROS from neutrophils compared with Trolox (human neutrophils; 20 micro-M each): considerably more effective than Trolox
relative toxicity among the compounds [2]: far less toxic than compounds 2 and 3
toxic concentration ([2]; 24 h): 500 µM
toxic concentration ([2]; 48 h): 500 µM
toxic concentration ([2]; 72 h): 200 µM
antioxidative effect on extracellular ROS [3]: antioxidative effect on extra cellular ROS
